Measured values: PubChem BioAssay (NCI)
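1) Cells in 96-well plates. 2) Compound, 48 h, 5 concentrations. 3) Linear interpolation between surrounding doses. 4) Unreached endpoint = highest concentration. TGI: total growth inhibition.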

Columns and labels:
Assay in all cases: NCI-60 cell line screen, 48 h
[1] = test system: PC-3 prostate
[2] = test system: UO-31 renal
[3] = test system: MCF7 breast
[4] = test system: SF-295 CNS
[5] = test system: T-47D breast
[6] = test system: EKVX NSCLC
[7] = test system: HT29 colon
[8] = test system: OVCAR-4 ovarian
[9] = test system: A549 NSCLC
[10] = test system: OVCAR-5 ovarian
[11] = test system: UACC-257 melanoma
[12] = test system: MOLT-4 leukemia
[13] = test system: COLO 205 colon
[14] = test system: CCRF-CEM leukemia
[15] = test system: SN12C renal
[16] = test system: M14 melanoma
[17] = test system: OVCAR-3 ovarian
[18] = test system: SNB-75 CNS
[19] = test system: DU-145 prostate
[20] = test system: K-562 leukemia
[21] = test system: SK-OV-3 ovarian
[22] = test system: MDA-MB-435
[23] = test system: HCC-2998 colon
[24] = test system: NCI-H522 lung
[25] = test system: HOP-62 NSCLC
[26] = test system: SNB-19 CNS
[27] = test system: HCT-15 colon
[28] = test system: MDA-N
[29] = test system: SW-620 colon
[30] = test system: SF-539 CNS
[31] = test system: HL-60(TB) leukemia
[32] = test system: NCI-H23 lung
[33] = test system: BT-549 breast
[34] = test system: SK-MEL-28 melanoma
[35] = test system: MDA-MB-231 breast
[36] = test system: NCI/ADR-RES ovarian
[37] = test system: NCI-H460 lung
[38] = test system: SF-268 CNS
[39] = test system: HCT-116 colon
[40] = test system: LOX IMVI melanoma
[41] = test system: SK-MEL-5 melanoma
[42] = test system: OVCAR-8 ovarian
[43] = test system: IGROV1 ovarian
[44] = test system: SR leukemia
[45] = test system: KM12 colon
[46] = test system: 786-0 renal
[47] = test system: UACC-62 melanoma
[48] = test system: U251 CNS
[49] = test system: TK-10 renal
[50] = test system: HOP-92 NSCLC
[51] = test system: CAKI-1 renal
[52] = test system: MALME-3M melanoma
[53] = test system: SK-MEL-2 melanoma
[54] = test system: RXF 393 renal
[55] = test system: NCI-H226 lung
[56] = test system: A498 renal
[57] = test system: ACHN renal

## SCCCSCCSCCCSCCS
[1]
  TGI: > 100 µM
[2]
  TGI: > 100 µM
[3]
  TGI: > 100 µM
[4]
  TGI: > 100 µM
[5]
  TGI: > 100 µM
[6]
  TGI: > 100 µM
[7]
  TGI: > 100 µM
[8]
  TGI: > 100 µM
[9]
  TGI: > 100 µM
[10]
  TGI: > 100 µM
[11]
  TGI: > 100 µM
[12]
  TGI: > 100 µM
[13]
  TGI: > 100 µM
[14]
  TGI: > 100 µM
[15]
  TGI: > 100 µM
[16]
  TGI: > 100 µM
[17]
  TGI: > 100 µM
[18]
  TGI: > 100 µM
[19]
  TGI: > 100 µM
[20]
  TGI: > 100 µM
[21]
  TGI: > 100 µM
[22]
  TGI: > 100 µM
[23]
  TGI: > 100 µM
[24]
  TGI: > 100 µM
[25]
  TGI: > 100 µM
[26]
  TGI: > 100 µM
[27]
  TGI: > 100 µM
[28]
  TGI: > 100 µM
[29]
  TGI: > 100 µM
[30]
  TGI: > 100 µM
[31]
  TGI: > 100 µM
[32]
  TGI: > 100 µM
[33]
  TGI: > 100 µM
[34]
  TGI: > 100 µM
[35]
  TGI: > 100 µM
[36]
  TGI: > 100 µM
[37]
  TGI: > 100 µM
[38]
  TGI: > 100 µM
[39]
  TGI: > 100 µM
[40]
  TGI: > 100 µM
[41]
  TGI: > 100 µM
[42]
  TGI: > 100 µM
[43]
  TGI: > 100 µM
[44]
  TGI: > 100 µM
[45]
  TGI: > 100 µM
[46]
  TGI: > 100 µM
[47]
  TGI: > 100 µM
[48]
  TGI: > 100 µM

## CN1CCN(CCCCN2c3ccccc3Sc3ccc(C(=O)c4ccccc4)cc32)CC1
[1]
  TGI: 2.83 µM
[2]
  TGI: 6.27 µM
[3]
  TGI: 3.65 µM
[4]
  TGI: 3.45 µM
[5]
  TGI: 45.4 µM
[6]
  TGI: 15.5 µM
[7]
  TGI: 2.6 µM
[8]
  TGI: 6.13 µM
[9]
  TGI: 3.55 µM
[49]
  TGI: 3.11 µM
[10]
  TGI: 7.43 µM
[11]
  TGI: 3.36 µM
[12]
  TGI: 3.43 µM
[13]
  TGI: 3.28 µM
[15]
  TGI: 3.19 µM
[16]
  TGI: 3.32 µM
[17]
  TGI: 3.71 µM
[50]
  TGI: 4.68 µM
[18]
  TGI: 2.58 µM
[19]
  TGI: 6.73 µM
[20]
  TGI: 2.79 µM
[21]
  TGI: 2.94 µM
[22]
  TGI: 3.24 µM
[23]
  TGI: 2.94 µM
[24]
  TGI: 3.44 µM
[25]
  TGI: 3.16 µM
[26]
  TGI: 3.45 µM
[27]
  TGI: 3.06 µM
[28]
  TGI: 2.92 µM
[29]
  TGI: 3.2 µM
[30]
  TGI: 3.41 µM
[31]
  TGI: 3.66 µM
[32]
  TGI: 3.71 µM
[33]
  TGI: 3.04 µM
[51]
  TGI: 2.75 µM
[34]
  TGI: 2.85 µM
[35]
  TGI: 3.38 µM
[52]
  TGI: 7.3 µM
[53]
  TGI: 3.41 µM
[38]
  TGI: 13 µM
[39]
  TGI: 3.29 µM
[54]
  TGI: 2.57 µM
[55]
  TGI: 3.7 µM
[40]
  TGI: 3.22 µM
[41]
  TGI: 3.08 µM
[56]
  TGI: 3.12 µM
[42]
  TGI: 2.97 µM
[43]
  TGI: 3.19 µM
[57]
  TGI: 3.06 µM
[44]
  TGI: 4.61 µM
[45]
  TGI: 2.49 µM
[47]
  TGI: 2.52 µM
[48]
  TGI: 3.09 µM
